Measurements reported in patent US20210198204A1, “PRODRUGS OF KALLIKREIN INHIBITORS” (BioCryst Pharmaceuticals, Inc., priority 2016, published 2021).

Experiment: Plasma pharmacokinetics of the parent compound after a single oral dose of prodrug
Assay type: in vivo
Settings: single oral dose 10 mg/kg, fasted male Sprague Dawley rats; plasma analyzed for the parent compound; study duration 8 h
Procedure, shortened: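 Three male Sprague Dawley rats, housed in metabolic cages and fasted about 15 hours, were weighed and received one oral gavage dose of 10 mg/kg as a solution in water or water/propylene glycol. Blood (approximately 500 μL) went into heparin tubes at set timepoints up to the study duration. Plasma was separated by centrifugation at 14,000 rpm for 3 min at 4° C, stored below −70° C, and assayed for the parent compound.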

SMILES	AUC0-last hour (area under the curve)
C=Cc1cc(C(=O)Nc2ccc(C(=N)NC(=O)OCCOCC)cc2)c(-c2ccc(C(=O)NCC3CC3)nc2C(=O)OC(C)OC(=O)C(C)C)cc1OC (stereo not shown) [Compound 80c, 1-(isobutyryloxy)ethyl 6-((cyclopropylmethyl)carbamoyl)-3-(2-((4-(N-((2-ethoxyethoxy)carbonyl)carbamimidoyl)phenyl)carbamoyl)-5-methoxy-4-vinylphenyl)picolinate]	C (C >10,000 ng/mL)
C=Cc1cc(C(=O)Nc2ccc(C(=N)NC(=O)OCCCCCC)cc2)c(-c2ccc(C(=O)NCC3CC3)nc2C(=O)OC(C)OC(=O)NC(C)C)cc1OC (stereo not shown) [Compound 81d, 1-((isopropylcarbamoyl)oxy)ethyl 6-((cyclopropylmethyl)carbamoyl)-3-(2-((4-(N-((hexyloxy)carbonyl)carbamimidoyl)phenyl)carbamoyl)-5-methoxy-4-vinylphenyl)picolinate]	A (A = 0-1,000 ng/mL)
C=Cc1cc(C(=O)Nc2ccc(C(=N)NC(=O)OCCOCCC)cc2)c(-c2ccc(C(=O)NCC3CC3)nc2C(=O)OC(C)OC(=O)OC(C)C)cc1OC (stereo not shown) [Compound 83c, 1-((isopropoxycarbonyl)oxy)ethyl 6-((cyclopropylmethyl)carbamoyl)-3-(5-methoxy-2-((4-(N-((2-propoxyethoxy)carbonyl)carbamimidoyl)phenyl)carbamoyl)-4-vinylphenyl)picolinate]	B (B = 1,001-10,000 ng/mL)
C=Cc1cc(C(=O)Nc2ccc(C(=N)NC(=O)OCC(O)CO)cc2)c(-c2ccc(C(=O)NCC3CC3)nc2C(=O)OC(C)OC(=O)OC(C)C)cc1OC (stereo not shown) [Compound 84a, 1-((isopropoxycarbonyl)oxy)ethyl 6-((cyclopropylmethyl)carbamoyl)-3-(2-((4-(N-((2,3-dihydroxypropoxy)carbonyl)carbamimidoyl)phenyl)carbamoyl)-5-methoxy-4-vinylphenyl)picolinate]	A (A = 0-1,000 ng/mL)
C=Cc1cc(C(=O)Nc2ccc(C(=N)NC(=O)OCCO)cc2)c(-c2ccc(C(=O)NCC3CC3)nc2C(=O)OC(C)OC(=O)C(C)C)cc1OC (stereo not shown) [Compound 85d, 1-(isobutyryloxy)ethyl 6-((cyclopropylmethyl)carbamoyl)-3-(2-((4-(N-((2-hydroxyethoxy)carbonyl)carbamimidoyl)phenyl)carbamoyl)-5-methoxy-4-vinylphenyl)picolinate]	A (A = 0-1,000 ng/mL)
C=Cc1cc(C(=O)Nc2ccc(C(=N)NC(=O)OCCCCCC)cc2)c(-c2ccc(C(=O)NCC3CC3)nc2C(=O)OC(C)OC(=O)OCC2COC(C)(C)O2)cc1OC (stereo not shown) [Compound 87a, 1-((((2,2-dimethyl-1,3-dioxolan-4-yl)methoxy)carbonyl)oxy)ethyl 6-((cyclopropylmethyl)carbamoyl)-3-(2-((4-(N-((hexyloxy)carbonyl)carbamimidoyl)phenyl)carbamoyl)-5-methoxy-4-vinylphenyl)picolinate]	B (B = 1,001-10,000 ng/mL)
C=Cc1cc(C(=O)Nc2ccc(C(=N)NC(=O)OCCCCCC)cc2)c(-c2ccc(C(=O)NCC3CC3)nc2C(=O)OC(C)OC(=O)N(C)C)cc1OC (stereo not shown) [Compound 90d, 1-((dimethylcarbamoyl)oxy)ethyl 6-((cyclopropylmethyl)carbamoyl)-3-(2-((4-(N-((hexyloxy)carbonyl)carbamimidoyl)phenyl)carbamoyl)-5-methoxy-4-vinylphenyl)picolinate]	A (A = 0-1,000 ng/mL)
C=Cc1cc(C(=O)Nc2ccc(C(=N)NC(=O)OCCCCCC)cc2)c(-c2ccc(C(=O)NCC3CC3)nc2C(=O)OC(C)OC(=O)N[C@H](C(=O)OCC)[C@@H](C)CC)cc1OC (stereo partly drawn) [Compound 91d, 1-((((2S,3S)-1-ethoxy-3-methyl-1-oxopentan-2-yl)carbamoyl)oxy)ethyl 6-((cyclopropylmethyl)carbamoyl)-3-(2-((4-(N-((hexyloxy)carbonyl)carbamimidoyl)phenyl)carbamoyl)-5-methoxy-4-vinylphenyl)picolinate]	A (A = 0-1,000 ng/mL)
C=Cc1cc(C(=O)Nc2ccc(C(=N)NC(=O)OCCC[C@H](O)C(=O)O)cc2)c(-c2ccc(C(=O)NCC3CC3)nc2C(=O)OC(C)OC(=O)C(C)C)cc1OC (stereo partly drawn) [Compound 92a, (2S)-5-((((4-(2-(6-((cyclopropylmethyl)carbamoyl)-2-((1-(isobutyryloxy)ethoxy)carbonyl)pyridin-3-yl)-4-methoxy-5-vinylbenzamido)phenyl)(imino)methyl)carbamoyl)oxy)-2-hydroxypentanoic acid]	A (A = 0-1,000 ng/mL)
C=Cc1cc(C(=O)Nc2ccc(C(=N)NC(=O)OCCCCCO)cc2)c(-c2ccc(C(=O)NCC3CC3)nc2C(=O)OC(C)OC(=O)C(C)C)cc1OC (stereo not shown) [Compound 94e, 1-(isobutyryloxy)ethyl 6-((cyclopropylmethyl)carbamoyl)-3-(2-((4-(N-(((5-hydroxypentyl)oxy)carbonyl)carbamimidoyl)phenyl)carbamoyl)-5-methoxy-4-vinylphenyl)picolinate]	B (B = 1,001-10,000 ng/mL)
C=Cc1cc(C(=O)Nc2ccc(C(=N)NC(=O)OC(C)CO)cc2)c(-c2ccc(C(=O)NCC3CC3)nc2C(=O)OC(C)OC(=O)OC(C)C)cc1OC (stereo not shown) [Compound 95e, 1-((isopropoxycarbonyl)oxy)ethyl 6-((cyclopropylmethyl)carbamoyl)-3-(2-((4-(N-(((1-hydroxypropan-2-yl)oxy)carbonyl)carbamimidoyl)phenyl)carbamoyl)-5-methoxy-4-vinylphenyl)picolinate]	B (B = 1,001-10,000 ng/mL)
C=Cc1cc(C(=O)Nc2ccc(C(=N)NC(=O)OCCN3CCOCC3)cc2)c(-c2ccc(C(=O)NCC3CC3)nc2C(=O)OC(C)OC(=O)[C@@H](N)C(C)C)cc1OC (stereo partly drawn) [Compound 96d, 1-(((S)-2-amino-3-methylbutanoyl)oxy)ethyl 6-((cyclopropylmethyl)carbamoyl)-3-(5-methoxy-2-((4-(N-((2-morpholinoethoxy)carbonyl)carbamimidoyl)phenyl)carbamoyl)-4-vinylphenyl)picolinate]	A (A = 0-1,000 ng/mL)
C=Cc1cc(C(=O)Nc2ccc(C(=N)NC(=O)OC(C)CN)cc2)c(-c2ccc(C(=O)NCC3CC3)nc2C(=O)OC(C)OC(=O)OC(C)C)cc1OC (stereo not shown) [Compound 97e, 1-((isopropoxycarbonyl)oxy)ethyl 3-(2-((4-(N-(((1-aminopropan-2-yl)oxy)carbonyl)carbamimidoyl)phenyl)carbamoyl)-5-methoxy-4-vinylphenyl)-6-((cyclopropylmethyl)carbamoyl)picolinate]	A (A = 0-1,000 ng/mL)
C=Cc1cc(C(=O)Nc2ccc(C(=N)NC(=O)OC[C@H]3OC[C@H](O)[C@@H]3O)cc2)c(-c2ccc(C(=O)NCC3CC3)nc2C(=O)OC(C)OC(=O)C(C)C)cc1OC (stereo partly drawn) [Compound 98e, 1-(isobutyryloxy)ethyl 6-((cyclopropylmethyl)carbamoyl)-3-(2-((4-(N-((((2R,3S,4S)-3,4-dihydroxytetrahydrofuran-2-yl)methoxy)carbonyl)carbamimidoyl)phenyl)carbamoyl)-5-methoxy-4-vinylphenyl)picolinate]	A (A = 0-1,000 ng/mL)
C=Cc1cc(C(=O)Nc2ccc(C(=N)NC(=O)OC[C@H]3NC[C@H](O)[C@@H]3O)cc2)c(-c2ccc(C(=O)NCC3CC3)nc2C(=O)OC(C)OC(=O)OC(C)C)cc1OC (stereo partly drawn) [Compound 99e, 1-((isopropoxycarbonyl)oxy)ethyl 6-((cyclopropylmethyl)carbamoyl)-3-(2-((4-(N-((((2R,3R,4S)-3,4-dihydroxypyrrolidin-2-yl)methoxy)carbonyl)carbamimidoyl)phenyl)carbamoyl)-5-methoxy-4-vinylphenyl)picolinate]	A (A = 0-1,000 ng/mL)
C=Cc1cc(C(=O)Nc2ccc(C(=N)NC(=O)OCCCCCC)cc2)c(-c2ccc(C(=O)NCC3CC3)nc2C(=O)OC(C)OC(=O)OC(C)CO)cc1OC (stereo not shown) [Compound 100e, 1-((((1-hydroxypropan-2-yl)oxy)carbonyl)oxy)ethyl 6-((cyclopropylmethyl)carbamoyl)-3-(2-((4-(N-((hexyloxy)carbonyl)carbamimidoyl)phenyl)carbamoyl)-5-methoxy-4-vinylphenyl)picolinate]	B (B = 1,001-10,000 ng/mL)
C=Cc1cc(C(=O)Nc2ccc(C(=N)NC(=O)OCCOC(=O)[C@@H](N)C(C)C)cc2)c(-c2ccc(C(=O)NCC3CC3)nc2C(=O)OC(C)OC(=O)C(C)C)cc1OC (stereo partly drawn) [Compound 101e, 1-(isobutyryloxy)ethyl 3-(2-((4-(N-((2-(((S)-2-amino-3-methylbutanoyl)oxy)ethoxy)carbonyl)carbamimidoyl)phenyl)carbamoyl)-5-methoxy-4-vinylphenyl)-6-((cyclopropylmethyl)carbamoyl)picolinate]	A (A = 0-1,000 ng/mL)
C=Cc1cc(C(=O)Nc2ccc(C(=N)NC(=O)OCCCCCN)cc2)c(-c2ccc(C(=O)NCC3CC3)nc2C(=O)OC(C)OC(=O)C(C)C)cc1OC (stereo not shown) [Compound 102d, 1-(isobutyryloxy)ethyl 3-(2-((4-(N-(((5-aminopentyl)oxy)carbonyl)carbamimidoyl)phenyl)carbamoyl)-5-methoxy-4-vinylphenyl)-6-((cyclopropylmethyl)carbamoyl)picolinate]	A (A = 0-1,000 ng/mL)
C=Cc1cc(C(=O)Nc2ccc(C(=N)NC(=O)OC[C@@H]3CCC(=O)N3)cc2)c(-c2ccc(C(=O)NCC3CC3)nc2C(=O)OC(C)OC(=O)C(C)C)cc1OC (stereo partly drawn) [Compound 103c, 1-(isobutyryloxy)ethyl 6-((cyclopropylmethyl)carbamoyl)-3-(5-methoxy-2-((4-(N—((((S)-5-oxopyrrolidin-2-yl)methoxy)carbonyl)carbamimidoyl)phenyl)carbamoyl)-4-vinylphenyl)picolinate]	A (A = 0-1,000 ng/mL)
